The values that follow are results of earlier work, collected in patent US8633167B2, “Method for the protection of trees” (Syngenta Crop Protection LLC, priority 2006, dated 2014).

Data set [1] relates to SPB. The conditions noted are these: applied to foliage at two different rates; cited from earlier work.
In data set [2] the test system is SPB. The settings on record: applied by Mauget Injectors; cited from earlier work.

Take `COP(=O)(NC(C)=O)SC` (stereo not shown) [acephate]: in the data set on SPB [1], the SPB larval survival result is reported as “reduce” and the “effect on eggs, pupae, callow or parent adults” value was “no effect”.

As to `COP(=O)(OC)O/C(C)=C/C(=O)N(C)C` [dicrotophos], in the data set with SPB [2], the egg gallery length entry is reported as “significantly reduce” and the subsequent brood production result was “significantly reduce”.
